Measurements: paper PMC10917775, “Endogenous stimuli-responsive separating microneedles to inhibit hypertrophic scar through remodeling the pathological microenvironment” (Nature Communications, 2024)
Peptide text beside a SMILES is read from it. * marks the point of attachment. Acetyl(5-fluorouracil-1-yl) = O=C(Cn1cc(F)c(=O)[nH]c1=O)*; Methacryloyl = C=C(C)C(=O)*

How the values were obtained:
NIH/3T3 fibroblasts [1] = test: CCK-8 cell viability / cytotoxicity assay; format: cell-based; settings: for inhibitory effect on fibroblasts compared among 5-FuA, 5-FuA-Pep-MA and 5-FuA-Pro-Pro: all the concentrations (80, 125, 250 μM), 48 h, CCK-8, one-way ANOVA, n = 4
Procedure: In vitro cell viability and cytotoxicity. The CCK-8 assays were used to detect the cytotoxicity of
5-Fu and 5-Fu derivatives towards NIH/3T3 fibroblasts. Briefly, NIH/3T3 fibroblasts were cultured
with DMEM medium (containing 10% FBS and 1% penicillin-streptomycin) at 37 °C with 5% CO2.
Then, NIH/3T3 fibroblasts were seeded in 96-well plates at a density of 5 × 10^3 cells/well and
cultured for 12 h to adhere to the bottom of the plates. Subsequently, the medium was replaced with
concentrations of 80, 125, 250 μM, respectively. The cells treated with the neat medium were taken
as the control group. After 48 h of incubation, the CCK-8 kit was added, and the absorption of each
well at 450 nm was measured with a microplate reader (Multiskan MK3, ThermoFisher Scientific,
USA) to calculate the cell viability.

NIH/3T3 fibroblasts [2] = test: In vitro wound scratch (migration) assay; format: cell-based; settings: 80 μM drug with 0.5% FBS, after 48 h of incubation, Image J, n = 3, control almost complete closure within 48 h
Procedure: In vitro wound scratch assay. Wound scratch assays were used to evaluate the migration of
NIH/3T3 fibroblasts were seeded into 24-well plates at a density of 2 × 10^4 cells/well for 8 h. Then,
the sterile pipette tips were used to draw the scratch in the center of the wells, and the cells scratched
off were washed away with PBS for 3 times. 500 μL of drug solutions consisting of 80 μM of 5-

[3] = ROS-responsive cleavage of prodrug by H2O2 (HPLC); format: physicochemical; settings: PBS with 10, 50, 100 and 300 μM H2O2, 37 °C, 24-120 h, HPLC peak area, n = 3
From the text: pathological microenvironment of HS tissues determined the drug release rate and […]
Indeed, the size, thickness and duration vary in patients with HS, which could affect the amount of drug needed. […]
fibroblasts/myofibroblasts and the more collagen fibers secreted. Therefore, we could adjust the frequency of treatment for different scar features (size, thickness and […]
3. Figure 3: The ROS response of 5-FuA-Pep-MA prodrug with different concentrations of H2O2 should be shown in both concentration and time.
We have revisited the relevant experiment.
Specifically, 5-FuA-Pep-MA prodrug was incubated with PBS containing different concentrations (10, 50, 100 and 300 μM) of H2O2 at 37 ℃, respectively . 50 μL solutio n was taken out at a pres et time (24, 48, 72, 96 and 120 h), which was analy zed by HPLC. […]
and concentration-dependent (Fig. 3g). […]
For the question3: As described in method:  The peak area obtained from the sample without H2O2 was recorded as A0, while the peak area obtained from the sample with H2O2 was recorded as Ac. The degradation rate was calculated by [(A0-Ac)/A0] À 100% to evaluate the ROS response of peptide prodrug […]
A direct observation of more 5-FU with more H2O2, by HPLC or other methods, either in-vitro or in-vivo, would be more convictive. For example, glucose responsive release of insulin was detected by insulin elisa kit, not the degradation of vesicles […]

[4] = tested on: human hypertrophic scar fibroblast (HSFb); test: Intracellular ROS scavenging (ROS assay kit, DCFH-DA, CLSM); format: cell-based; settings: HSFb stimulated with ROSup, 5-FuA-Pep-MA 50, 100 and 200 μM, 12 h, with increased concentration
Procedure: The migration of cells was imaged with an inversion microscope at 0, 24 and 48 h. The area of the scratch was analyzed by Image J, and the wound healing rate (WHR) was calculated according to the following equation: WHR (%) = (A0 − At)/A0 × 100%, where A0 and At represented the area of scratch at 0 h and t h, respectively.
Intracellular ROS scavenging. ROS assay kit was used to observe the elimination of intracellular ROS by 5-FuA-Pep-MA. Specifically, HSFbs were seeded in 8-well confocal dishes at a density of 1 × 10^4 cells/well and cultured for 12 h to adhere to the bottom of the dishes. […]
Immunohistochemical, fluorescence and immunofluorescence staining of HS tissues. The ROS levels in HS tissues were measured by the fluorescence and immunofluorescence methods on day
43rd. […] The expression of MMP2 and MMP9 in HS tissues were measured by immunohistochemistry and immunofluorescence methods on day 43rd. […]
RNA sequencing and sample collection. […] RNA integrity was assessed using the RNA Nano 6000 Assay Kit of the Bioanalyzer 2100 system (Agilent Technologies, CA, USA). PCR products were purified (AMPure XP system) and library quality was assessed on the Agilent Bioanalyzer 2100 system. […]
Quality control. Firstly, raw data (raw reads) of fastq format were processed through in-house perl scripts. […]

rabbit ear HS model = test: In vivo HS inhibition study, scar elevation index from H&E sections; design: species or system rabbits (Oryctolagus cuniculus); settings: after the 3rd administration (once a week for 3 weeks), before treatment 3.5 in drug-loaded MNs group, untreated HS group 3.3, 5-Fu injection 120 μg per lesion, mean of n = 3
Procedure: We investigated therapeutic effects of separating MNs on HS model in rabbit ears. Among the 15 rabbits, three rabbits were used as the control group (normal skin, NS), and the other 12 rabbits were used to establish HS model. The rabbit ear HS model was established according to a standard method, i.e., 4 HS lesions on each ear and 96 in total. Briefly, the rabbits were anesthetized with sodium pentobarbital (30 mg/kg) and operated under sterile conditions. Then, 4 round-shaped wounds of 7 mm diameter were created on the ventral surface of each ear, which were kept away from the central auricular artery and the periauricular vein. The epidermis, dermis, and perichondrium in each wound was removed thoroughly. After the procedures, the wounds were washed with 0.1% benzalkonium chloride solution to sterilize. In the following 2 weeks, after the rabbits were anesthetized, the newly formed wound tissues were removed to accelerate the formation of HS. […]
The three rabbits without treatment were taken as the control group (group 1, NS). […] The macroscopic images were recorded on the 21st day (before administration), the 29th day (1 week after the 1st administration), the 36th day (1 week after the 2nd administration), the 43rd day (1 week after the 3rd administration) and the 50th day (1 week follow-up). […]

[5] = design: method as in earlier work; settings: in blood circulation; ref Oncol. Lett. 2018, 15, 7175; Cancer Res. 1978, 38, 3479; Cancer Biol. Ther., 2012, 13, 1407; Cancer Chemother. Pharmacol. 2013, 71, 351; Biomater. Sci. 2017, 5, 502; cited from earlier work
From the text: Response: Thanks for the questions. […] Corticosteroids could reduce inflammation response, promote vasoconstrictive effect, and inhibit fibroblast proliferation to treat HS.

| SMILES | inhibitory effect on fibroblasts compared among 5-FuA, 5-FuA-Pep-MA and 5-FuA-Pro-Pro (NIH/3T3 fibroblasts [1]) | wound healing rate (NIH/3T3 fibroblasts [2]) [%] | ROS-responsive cleavage rate [3] | intracellular ROS fluorescence intensity [4] | cell viability (NIH/3T3 fibroblasts [1]; 250 μM, 48 h incubation, CCK-8, absorption at 450 nm, mean of n = 4) [%] | scar elevation index (SEI) (rabbit ear HS model) | half-life [5] [min] |
| --- | --- | --- | --- | --- | --- | --- | --- |
| O=C(O)[C@@H]1CCCN1C(=O)[C@@H]1CCCN1C(=O)Cn1cc(F)c(=O)[nH]c1=O [5-FuA-Pro-Pro] | no significant difference | 53.2 | – | – | – | – | – |
| O=C(O)Cn1cc(F)c(=O)[nH]c1=O [5-FuA, 5-Fuorouracil-1-acetic acid] | no significant difference | 48.3 | – | – | – | – | – |
| C=C(C)C(=O)NCCCC[C@H](NC(=O)[C@@H]1CCCN1C(=O)[C@@H]1CCCN1C(=O)[C@@H]1CCCN1C(=O)Cn1cc(F)c(=O)[nH]c1=O)C(N)=O [5-FuA-Pep-MA] ({Acetyl(5-fluorouracil-1-yl)}-PPPK(Methacryloyl)-NH2) | no significant difference | 51.6 | positively correlated with H2O2 concentrations and incubation time | significantly reduced | – | – | – |
| O=c1[nH]cc(F)c(=O)[nH]1 [5-Fu, 5-Fluorouracil] | – | – | – | – | 46.9 | 2.2 | 10 to 20 |
